Counter-ions that a name gives are not always drawn.
What was measured:
CD-1 mice [1] = experiment: Substance P-induced itch-associated scratching behavior in mice; type: in vivo, mouse
Excerpt: In this model, an itch-associated response is induced by intradermal injection of the neuropetide, Substance-P, in mice, and scratching behavior is observed and quantitated. […] Clinically, scratching is used as an objective measure of itch since itch is a sensation which promotes the desire to scratch the stimulated area (Yosipovitch G., Definitions of Itch, in Itch Basic Mechanisms and Therapy, ed. Yosipovitch G., et al, 2003) Eight Albino male CD-1 mice per group, 7-9 weeks old, were used. Induction of scratching behavior in the mouse was based on known methods (Andoh T, et al., J Pharmacol Exp Ther. 286:1140-1145, 1998) and produces features similar to itch in humans. An itch-associated response was induced by intradermal injection of Substance P in CD-1 mice, and scratching behavior is observed and quantitated. Before the experiment, mice were individually housed in a plastic cage for at least 1 hour for acclimation. Mice are pre-treated for 30 minutes with topical application of Sertaconazole Nitrate (1%) prepared in 100% ethanol, to an area of the back, which had been shaved one day prior to the experiment. […] The number of scratches elicited during a 30 minute period after injection of Substance-P was determined by playback of the videotape.

CD-1 mice [2] = experiment: Resiniferatoxin-induced neurogenic inflammation (ear edema) in the mouse ear; type: in vivo; conditions: for % Inhibition of the Ear Edema: topical to left ear (20 μL) immediately after resiniferatoxin (0.05%) challenge, 7-mm ear biopsy weight 30 minutes after, lidocaine 0.5% w/v, sertaconazole nitrate 1% w/v in 70% ethanol/30% propylene glycol
Description: Eight Albino male CD-1 mice per group, 7-9 weeks old, were used. Induction of neurogenic inflammation in the mouse ear was based on known methods (Inoue H, et al., Br J Pharmacol. 110:1614-1620, 1993). A 20-μl volume of Resiniferatoxin (0.05%) prepared in acetone was applied to the left ears (8 mice per treatment group). The right ear was treated as a control and not treated. Lidocaine hydrochloride (Sigma Aldrich, St. Louis, Mo.) was prepared as a 0.5% w/v solution in 70% ethanol/30% propylene glycol vehicle. Sertaconazole nitrate (Grupo Ferrer International, Barcelona, Spain) was prepared as a 1.0% w/v solution in a 70% ethanol/30% propylene glycol vehicle and applied to the left ear (20 μL) immediately after resiniferatoxin challenge. The mice were sacrificed by CO2 inhalation 30 minutes after applying the solutions. The left and right ears were removed and a 7-mm biopsy was removed from each ear and weighed. The difference in biopsy weights between the right and left ear was calculated. The percent inhibition was calculated by comparing treatments to resiniferatoxin alone. Anti-neurogenic inflammation effects of compounds are evident as an inhibition of the increase in ear weight.

| Structure (SMILES) | reduction of the itch compared to placebo (CD-1 mice [1]; Substance P scratching model, topical 1% sertaconazole nitrate) | Scratches per 30 min (Mean ± S. D.) (CD-1 mice [1]; topical 1% w/v in 100% ethanol on shaved back, 30 minutes pre-treatment, 300 ug Substance P intradermal, 30 minute period after injection) | reducing neurogenic inflammation (result in words) (CD-1 mice [2]; resiniferatoxin mouse ear model, compared to the control or untreated ear) | % Inhibition of the Ear Edema (CD-1 mice [2]) |
| --- | --- | --- | --- | --- |
| Clc1ccc(C(Cn2ccnc2)OCc2csc3c(Cl)cccc23)c(Cl)c1 (centres unmarked) [Sertaconazole Nitrate, Sertaconazole nitrate] | 38.7% | 39.8 ± 2.7 | highly effective | 48.9% |
| CCN(CC)CC(=O)Nc1c(C)cccc1C [Lidocaine, Lidocaine hydrochloride] | – | – | – | 28.7% |

From US20060142304A1, “Method for treating or preventing pruritic and neurogenic skin disorders” (priority 2004, published 2006)
